Data published in patent US8642774B2, “Compounds” (Boehringer Ingelheim International GmbH, priority 2011, dated 2014).
Read-outs that look alike come from different tables or passages of the source.

Molecular target: T1, human recombinant mGluR5 (Homo sapiens, UniProt P41594)
T1 construct: expressed in transfected cells; host or cells: HEK 293 cell line, cultured with tetracycline, hygromycin and geneticin; tetracycline is withdrawn 3-7 days before the assay
Test: positive modulation of mGluR5, calcium based FLIPR assay
Type: cell-based
Protocol: The positive modulation of mGluR5 is measured in a HEK 293 cell line expressing human recombinant mGluR5 and is detected with calcium based FLIPR assay. The cells are cultured with DMEM supplemented with 10% FCS, 2 μg/mL tetracycline, 100 μg/mL hygromycin and 500 μg/mL gneticin. The cell culture media is exchanged for tetracycline-free cell culture media 3-7 days before the assay. One day before the assay the cell culture medium is exchanged to DMEM without glutamine and phenol red and supplemented with 10% FCS, 100 μg/mL hygromycin and 500 μg/mL geneticin. On the assay day, the medium of the subconfluent cultures is removed and the cells are detached by addition of 2.5 ml EDTA (0.02%) per 175 cm2 culture flask for 1 minute. The cells are resuspend in Ringer solution (140 mM NaCl, 5 mM KCl, 2.5 mM CaCl2, 1.5 mM MgCl2, 5 mM Glucose, 10 mM Hepes; adjusted to pH 7.4 with NaOH), pooled and Ringer solution added to adjust the volume to 50 mL. The cell suspension is centrifuged for 5 min at 1500 U/min (425 g). The supernatant is removed and the cells washed a second time with 50 ml fresh Ringer solution and centrifuged again as before. The supernatant is again removed and the pellet resuspended in Ringer solution to 1,000,000 cells/ml (1×10^6 cells/mL). The cells are plated onto BD BioCoat Poly-D-Lysine 384 well plates (20.000 cells/well; 20 μl/well). The lid covered plates are then incubated until use at 37° C./10% CO2. For dye loading, 20 μl of Calcium-4 assay kit solution (prepared according to the manufacturer's description in Ringer solution) are added to the cells and the plates are incubated for 80 min 37° C. and then 10 min at room temperature. • Controls, Compound dilution and assay execution: • Each assay plate contained wells with “high” and “low” controls:
Low controls 1% DMSO/ringer solution+basal glutamate activation (defined as 100% CTL).
High controls 10 μM CDPPB+basal glutamate activation (defined as 200% CTL).
Test compounds are dissolved and diluted in DMSO to 100-fold the desired concentrations. In a second step, the compounds are diluted in Ringer solution such that the compounds are 4-fold more concentrated than the desired final assay concentration. The final DMSO concentration was 1%.
20 μl of each compound solution are then transferred to the assay plate and the Ca2+ kinetic is measured to determine any intrinsic compound activity. After 5 min incubation in the FLIPR device, the second stimulation with 20 μl of glutamate in Ringer solution (glutamate concentration adjusted to approximately 5% basal stimulation of the maximal possible glutamate effect) is added and the kinetic Ca2+ response of the wells was measured for the modulation effect.
The peak height of the Ca release related fluorescence signal (9-66) is used for the EC50. The EC50 of the modulation is calculated over a nonlinear regression with GraphPad Prism (Table 1).

[1] = EC50 of the modulation, HEK 293 cell line expressing human recombinant mGluR5, peak height of Ca fluorescence signal after glutamate at approx. 5% basal stimulation, read-out: EC50

T1 sequence (P41594 21-1212): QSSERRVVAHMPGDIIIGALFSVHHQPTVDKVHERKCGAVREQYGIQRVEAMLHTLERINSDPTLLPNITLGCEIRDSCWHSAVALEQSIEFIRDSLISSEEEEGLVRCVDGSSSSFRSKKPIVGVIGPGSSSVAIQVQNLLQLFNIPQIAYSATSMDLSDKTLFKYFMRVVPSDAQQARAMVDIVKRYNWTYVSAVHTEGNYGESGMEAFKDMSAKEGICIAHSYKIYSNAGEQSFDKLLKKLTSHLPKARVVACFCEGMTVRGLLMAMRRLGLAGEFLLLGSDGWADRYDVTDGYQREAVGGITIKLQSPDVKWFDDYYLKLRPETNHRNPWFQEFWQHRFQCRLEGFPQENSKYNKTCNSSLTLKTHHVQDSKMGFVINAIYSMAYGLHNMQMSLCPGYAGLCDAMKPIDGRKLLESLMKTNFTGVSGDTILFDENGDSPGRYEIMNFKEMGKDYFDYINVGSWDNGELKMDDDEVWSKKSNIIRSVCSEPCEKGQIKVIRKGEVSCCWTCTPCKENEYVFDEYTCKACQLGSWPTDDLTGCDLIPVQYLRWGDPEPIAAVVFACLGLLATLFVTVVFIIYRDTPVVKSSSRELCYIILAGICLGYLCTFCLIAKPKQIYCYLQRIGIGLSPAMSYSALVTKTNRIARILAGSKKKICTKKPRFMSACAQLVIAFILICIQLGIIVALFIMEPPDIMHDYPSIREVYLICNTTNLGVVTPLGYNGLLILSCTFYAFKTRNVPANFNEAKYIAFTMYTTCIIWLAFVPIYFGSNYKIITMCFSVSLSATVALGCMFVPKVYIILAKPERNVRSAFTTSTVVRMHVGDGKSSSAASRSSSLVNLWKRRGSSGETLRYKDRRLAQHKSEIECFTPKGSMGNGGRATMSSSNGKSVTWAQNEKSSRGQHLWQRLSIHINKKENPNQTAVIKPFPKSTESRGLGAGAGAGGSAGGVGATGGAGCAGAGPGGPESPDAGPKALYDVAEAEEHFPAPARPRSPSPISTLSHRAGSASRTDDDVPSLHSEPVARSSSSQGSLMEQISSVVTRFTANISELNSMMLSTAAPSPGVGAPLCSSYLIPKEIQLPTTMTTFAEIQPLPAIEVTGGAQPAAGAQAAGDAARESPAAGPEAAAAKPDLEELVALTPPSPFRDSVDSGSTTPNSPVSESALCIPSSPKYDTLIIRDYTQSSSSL

SMILES	EC50 [1]	EC50
Cc1nc2c(o1)CN(C(=O)Cn1nc(-c3ccc(F)cc3)nc1-c1ccc(F)cc1)C2 [Example 7.03.124]	61 nM	–
Cc1cc(-c2nc(C3CCC(C)CC3)n(CC(=O)N3CCc4nc(N)sc4CC3)n2)ccc1F (centres unmarked) [Example 7.03.092.]	1160 nM	–
O=C(Cn1nc(-c2ccc(F)cc2)nc1-c1ccc(F)cc1)N1CCC(c2nnc(-c3ccccc3)o2)CC1 [Example 7.03.008.]	752 nM	–
O=C(Cn1nc(-c2ccc(F)cc2)nc1-c1ccc(F)cc1)N1CCc2nc(C3CCOCC3)sc2CC1 [Example 7.03.031.]	1780 nM	–
O=C(Cn1nc(-c2ccc(F)cc2)nc1-c1ccc(F)cc1)N1CCN(c2nc3ccccc3o2)CC1 [Example 7.03.047.]	140 nM	–
CCC(C)c1nc(-c2ccc(F)c(C)c2)nn1CC(=O)N1CCc2nc(N)sc2CC1 (centres unmarked) [Example 7.03.085.]	644 nM	–
Cc1cc(-c2nc(C3CCCC(C)C3)n(CC(=O)N3CCc4nc(N)sc4CC3)n2)ccc1F (centres unmarked) [Example 7.03.095.]	610 nM	–
COc1ccc(-c2nc(-c3ccccc3)n(CC(=O)N3CCN(c4ccccn4)C(=O)C3)n2)cc1 [Example 7.03.053.]	242 nM	–
Cc1ccnc(C2=CCN(C(=O)Cn3nc(-c4ccc(F)c(C)c4)nc3C(C)C)CC2)c1 [Example 7.03.078.]	803 nM	–
Cc1nnc(N2CCN(C(=O)Cn3nc(-c4ccc(OC(F)F)cc4)nc3-c3ccccc3)CC2)o1 [Example 7.03.134]	129 nM	–
Cc1ncc2c(n1)CCN(C(=O)Cn1nc(-c3ccc(F)cc3)nc1-c1ccc(F)cc1)C2 [Example 7.02.55.]	1200 nM	–
CC(C)c1noc(C2CCN(C(=O)Cn3nc(-c4ccc(F)cc4)nc3-c3ccc(F)cc3)CC2)n1 [Example 7.02.03.]	1220 nM	–
Cc1cc(-c2nc(-c3ccccc3)n(CC(=O)N3CCc4nc(N)sc4CC3)n2)ccc1F [Example 7.03.065.]	95 nM	–
CCCCc1nc(-c2ccc(F)c(C)c2)nn1CC(=O)N1CCc2nc(C)sc2CC1 [Example 7.03.103.]	113 nM	–
Cc1nc2c(o1)CN(C(=O)Cn1nc(-c3ccc(F)c(C)c3)nc1-c1ccccc1)CC2 [Example 7.03.064.]	86 nM	–
Cc1nc2c(s1)CCN(C(=O)Cn1nc(-c3ccc(F)cn3)nc1-c1ccc(F)cc1)CC2 [Example 7.03.116.]	392 nM	–
CN1C(=O)N(C2CCN(C(=O)Cn3nc(-c4ccc(F)cc4)nc3-c3ccc(F)cc3)CC2)Cc2ccccc21 [Example 7.02.25.]	1860 nM	–
O=C(Cn1nc(-c2ccc(F)cc2)nc1-c1ccc(F)cc1)N1CCN(c2nnc(C(F)(F)F)s2)CC1 [Example 7.02.68.]	198 nM	–
O=C(Cn1nc(-c2ccc(F)cc2)nc1-c1ccc(F)cc1)N1CCc2cc(F)ccc2C1 [Example 7.02.05.]	900 nM	–

SMILES	EC50 [1]	EC50
O=C(Cn1nc(-c2ccc(F)cc2)nc1-c1ccc(F)cc1)N1CCC(c2ncc(Cl)cn2)CC1 [Example 7.02.50.]	216 nM	–
Cc1nc2c(o1)CN(C(=O)Cn1nc(-c3ccc(F)c(C)c3)nc1C1CCCCC1)CC2 [Example 7.03.059.]	540 nM	–
COc1ccc2c(c1)CCN(C(=O)Cn1nc(-c3ccc(F)c(C)c3)nc1-c1ccccc1)CC2 [Example 7.02.91.]	107 nM	–
O=C(Cn1nc(-c2ccc(F)cc2)nc1-c1ccc(F)cc1)N1CCN(c2nccs2)C(=O)C1 [Example 7.01.02.]	118 nM	–
Cc1cc(-c2nc(C3CCCC3)n(CC(=O)N3CCc4nc(N)sc4CC3)n2)ccc1F [Example 7.03.106.]	251 nM	–
O=C(Cn1nc(-c2ccc(F)cc2)nc1-c1ccc(F)cc1)N1CCc2ncsc2CC1 [Example 7.06.01., 2-(3,5-bis-(4-Fluoro-phenyl)-(1,2,4)triazol-1-yl]-1-(4,5,7,8-tetrahydro-thiazolo[4,5-d]azepin-6-yl)-ethanone]	1130 nM	–
O=C(Cn1nc(-c2ccc(F)cc2)nc1-c1ccc(F)cc1)N1CCC(Nc2ccccc2)CC1 [Example 7.02.20.]	–	1530 nM
O=C(Cn1nc(-c2ccc(F)cc2)nc1-c1ccc(F)cc1)N1CCC(Oc2ccccn2)CC1 [Example 7.03.009.]	808 nM	–
O=C(Cn1nc(-c2ccc(F)cc2)nc1-c1ccc(F)cc1)N1CCc2cn[nH]c2CC1 [Example 7.02.51.]	707 nM	–
O=C(Cn1nc(-c2ccc(F)cc2)nc1-c1ccc(F)cc1)N1CCN(c2noc3ccccc23)CC1 [Example 7.02.73.]	148 nM	–
CC(=O)Nc1nc2c(s1)CCN(C(=O)Cn1nc(-c3ccc(F)cc3)nc1-c1ccc(F)cc1)CC2 [Example 7.02.07.]	1200 nM	–
COC(=O)c1ccc2c(c1)CCN(C(=O)Cn1nc(-c3ccc(F)cc3)nc1-c1ccc(F)cc1)CC2 [Example 7.02.11.]	376 nM	–
CCNC(=O)Nc1nc2c(s1)CN(C(=O)Cn1nc(-c3ccc(F)cc3)nc1-c1ccc(F)cc1)CC2 [Example 7.02.15.]	646 nM	–
Cc1cc(-c2nc(C3CCCCC3)n(CC(=O)N3CCc4nc(N)sc4CC3)n2)ccc1F [Example 7.03.061.]	369 nM	–
Cc1cc(-c2nc(C(C)C)n(CC(=O)N3CC=C(c4ncccn4)CC3)n2)ccc1F [Example 7.03.076.]	1710 nM	–
O=C(Cn1nc(-c2ccc(F)cc2)nc1-c1ccc(F)cc1)N1CCN(c2ccccc2F)C(=O)C1 [Example 7.02.14.]	537 nM	–
COc1cc(-c2nc(-c3ccc(F)cc3)n(CC(=O)N3CCc4nc(C)sc4CC3)n2)ccc1F [Example 7.03.089.]	71 nM	–
Cc1nc2c(o1)CCN(C(=O)Cn1nc(-c3ccc(F)c(C)c3)nc1-c1ccccc1)C2 [Example 7.02.92.]	46 nM	–
O=C(Cn1nc(-c2ccc(F)cc2)nc1-c1ccc(F)cc1)N1CCC(c2ncc(-c3ccccc3)s2)CC1 [Example 7.02.19.]	1990 nM	–

SMILES	EC50 [1]	EC50
Cc1nc2c(s1)CCN(C(=O)Cn1nc(-c3ccc(F)c(C)c3)nc1C(C)C)CC2 [Example 7.03.074.]	321 nM	–
CC1CN(c2ccccn2)CCN1C(=O)Cn1nc(-c2ccc(F)cc2)nc1-c1ccc(F)cc1 (centres unmarked) [Example 7.03.014.]	626 nM	–
O=C(Cn1nc(-c2ccc(F)cc2)nc1-c1ccc(F)cc1)N1CCN(C2=NCCS2)CC1 [Example 7.03.046.]	356 nM	–
COc1ccc2c(c1)CCN(C(=O)Cn1nc(-c3ccc(F)cc3)nc1-c1ccc(F)cc1)C2 [Example 7.02.44.]	211 nM	–
CCCc1nc(-c2ccc(OC(F)F)cc2)nn1CC(=O)N1CCc2nc(C)sc2CC1 [Example 7.03.131]	316 nM	–
Cc1nc2c(s1)CN(C(=O)Cn1nc(-c3ccc(F)c(C)c3)nc1-c1ccccc1)C2 [Example 7.03.066.]	71 nM	–
COc1cnc(C2=CCN(C(=O)Cn3nc(-c4ccc(F)c(C)c4)nc3C(C)C)CC2)nc1 [Example 7.03.080.]	1140 nM	–
Cn1ncc2c1CN(C(=O)Cn1nc(-c3ccc(F)cc3)nc1-c1ccc(F)cc1)C2 [Example 7.02.49.]	1360 nM	–
O=C(Cn1nc(-c2ccc(F)cc2)nc1-c1ccc(F)cc1)N1CCN(c2ncnc3c2SCC3)CC1 [Example 7.02.76.]	242 nM	–
CC(C)NC(=O)Nc1nc2c(s1)CN(C(=O)Cn1nc(-c3ccc(F)cc3)nc1-c1ccc(F)cc1)CC2 [Example 7.02.16.]	1360 nM	–
O=C(Cn1nc(-c2ccc(F)cc2)nc1-c1ccc(F)cc1)N1CCc2nc(C3CCCCC3)sc2CC1 [Example 7.03.032.]	868 nM	–
Cc1nc2c(s1)CCN(C(=O)Cn1nc(-c3ccc(F)c(C)c3)nc1C1CCCC(C)C1)CC2 (centres unmarked) [Example 7.03.096.]	355 nM	–
CCCCCc1nc(-c2ccc(F)c(C)c2)nn1CC(=O)N1CCc2nc(C)sc2CC1 [Example 7.03.110.]	55 nM	–
O=C(Cn1nc(-c2ccc(F)cc2)nc1-c1ccc(F)cc1)N1CCC(c2noc3ccc(F)cc23)CC1 [Example 7.02.28.]	644 nM	–
O=C(Cn1nc(-c2ccc(F)cc2)nc1-c1ccc(F)cc1)N1CCc2cc(C(F)(F)F)ccc2C1 [Example 7.02.09.]	992 nM	–
COc1ccc2c(c1)CN(C(=O)Cn1nc(-c3ccc(F)cc3)nc1-c1ccc(F)cc1)CC2 [Example 7.02.41.]	1270 nM	–
CCCc1nc(-c2ccc(F)c(C)c2)nn1CC(=O)N1CCc2nc(N)sc2CC1 [Example 7.03.072.]	407 nM	–
Cc1nc2c(s1)CCN(C(=O)Cn1nc(-c3ccc(F)c(C)c3)nc1-c1ccccc1)CC2 [Example 7.03.063.]	60 nM	–
